Measured values: BindingDB's records for doi:10.7270/Q20K2778 (The Scripps Research Institute Molecular Screening Center, 2013)

The compounds below were run against Methyl-CpG-binding domain protein 2 (Homo sapiens, UniProt Q9UBB5) (assay: inhibitors of MBD2 binding to methylated DNA, dose response, biochemical, 5-meCpG oligonucleotide (AID 720645)).
Sequence of Methyl-CpG-binding domain protein 2 (Q9UBB5 whole entry, the tested form may be a part): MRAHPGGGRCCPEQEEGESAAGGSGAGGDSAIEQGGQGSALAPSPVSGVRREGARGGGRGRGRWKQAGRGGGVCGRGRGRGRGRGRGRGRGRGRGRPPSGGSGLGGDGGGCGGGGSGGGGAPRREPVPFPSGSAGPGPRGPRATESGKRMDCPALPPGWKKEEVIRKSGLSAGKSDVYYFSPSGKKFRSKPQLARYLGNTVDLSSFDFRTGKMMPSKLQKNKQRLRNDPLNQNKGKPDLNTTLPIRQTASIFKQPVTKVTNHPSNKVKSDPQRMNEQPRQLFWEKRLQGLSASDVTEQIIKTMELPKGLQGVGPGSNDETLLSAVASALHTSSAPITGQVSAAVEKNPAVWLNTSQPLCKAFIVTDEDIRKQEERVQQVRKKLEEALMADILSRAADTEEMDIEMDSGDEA

| Compound | IC50 [µM] |
| --- | --- |
| O=C(O)CSc1cc(NS(=O)(=O)c2ccc(Cl)cc2)c2ccccc2c1O [2-[4-[(4-chlorophenyl)sulfonylamino]-1-hydroxynaphthalen-2-yl]sulfanylacetic acid] | 4.87 |
| COc1cc(C(c2c(C)[nH][nH]c2=O)c2c(C)[nH][nH]c2=O)cc([N+](=O)[O-])c1O [4-[(3-methoxy-5-nitro-4-oxidanyl-phenyl)-(3-methyl-5-oxidanylidene-1,2-dihydropyrazol-4-yl)methyl]-5-methyl-1,2-dihydropyrazol-3-one] | 43.8 |
| COc1ccc(-c2csc(/C(C#N)=C/C3C=CC(=O)C([N+](=O)[O-])=C3)n2)cc1OC (centres undefined) [(E)-2-[4-(3,4-Dimethoxy-phenyl)-thiazol-2-yl]-3-(4-hydroxy-3-nitro-phenyl)-acrylonitrile] | 4.78 |
| Cc1ccc2c(Cl)c(Cc3ccccc3)c(=S)[nH]c2n1 [MLS001182542] | 8.02 |
